Measurements from publication PMC7774088 (ACS Omega, 2020).
pKd: −log10 of the molar value.

Assays:
Stp1 [1] = biological target: T1, Stp1 (Staphylococcus aureus, UniProt A0A0H2XF73); test: fluorescence quenching; assay type: binding
T1 sequence (A0A0H2XF73 1-247): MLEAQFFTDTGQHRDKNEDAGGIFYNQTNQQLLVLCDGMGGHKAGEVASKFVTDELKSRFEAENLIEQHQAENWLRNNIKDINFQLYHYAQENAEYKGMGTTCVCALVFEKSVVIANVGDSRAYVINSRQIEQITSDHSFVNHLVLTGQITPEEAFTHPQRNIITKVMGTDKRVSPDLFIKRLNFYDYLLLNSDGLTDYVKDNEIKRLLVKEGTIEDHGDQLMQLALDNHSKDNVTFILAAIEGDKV

Stp1 [2] = biological target: T1, Stp1; test: pNPP phosphatase assay, absorbance […] nm; assay type: biochemical; settings: read-out: % inhibition at 32 μg/mL
Stp1 [3] = biological target: Stp1 (Staphylococcus aureus, UniProt A0A0H2XF73, F179A); test: biochemical
Stp1 [4] = biological target: Stp1 (Staphylococcus aureus, UniProt A0A0H2XF73, Y199A); test: biochemical
Stp1 [5] = biological target: Stp1 (Staphylococcus aureus, UniProt A0A0H2XF73, P152A); test: biochemical
Stp1 [6] = biological target: Stp1 (Staphylococcus aureus, UniProt A0A0H2XF73, I164A); test: biochemical

## O=C(O[C@@H]1O[C@@H]2COC(=O)c3cc(O)c(O)c(O)c3-c3c(cc(O)c(O)c3O)C(=O)O[C@H]([C@H]1O)[C@@H]2O)c1cc(O)c(O)c(O)c1 [corilagin]
Stp1 [1]
  pKd: 5.71
Stp1 [2]
  inhibition at 32 µg/mL: > 90%
Stp1 [3]
  pKd: 5.59
Stp1 [4]
  pKd: 5.54
Stp1 [5]
  pKd: 5.14
Stp1 [6]
  pKd: 5.05
